In patent US20260198493A1, “HYDRAZIDE COMPOUND AND AGRICULTURAL/HORTICULTURAL FUNGICIDE” (Nippon Soda Co., Ltd., priority 2022, published 2026):

Tests used:
[1] = tested on: Botrytis cinerea; type: cell-based; conditions: 120 h, 25 ppm by volume, Vogel medium, 20° C., five days, dark, read-out: growth inhibition ratio
[2] = tested on: Botrytis cinerea; test: Control test of cucumber gray mold (sprayed young cucumber seedlings); type: in vivo; conditions: 96 h, four days after inoculation; for pest or weed control at 25 ppm: 25 ppm by mass spray; for pest or weed control at 125 ppm: 125 ppm by mass spray
Experimental: Then, the drug liquid was sprayed onto young cucumber seedlings cultivated in a nursery pot (variety “Jihai”-based, cotyledon stage), and then air-dried. […] They were left still in a moist room at 20° C. Four days after inoculation, leaves of the young cucumber seedlings were visually observed, and the control value was calculated from the lesion area ratio in accordance with the following equation. [formula]

[3] = tested on: Glomerella cingulata; test: Fungicidal effect test against fungi causing grape ripe rot disease; conditions: Colletotrichum gloeosporioides, 72 h, read-out: growth inhibition ratio
[4] = tested on: Colletotrichum acutatum; test: Fungicidal effect test against fungi causing apple anthracnose; conditions: 96 h, read-out: growth inhibition ratio
[5] = tested on: Fusarium graminearum; test: microbe, parasite or virus in culture; type: cell-based; conditions: 96 h, read-out: growth inhibition ratio
[6] = tested on: Erysiphe graminis f.sp.tritici; test: Control test of wheat powdery mildew disease (sprayed young wheat seedlings); type: in vivo; conditions: Blumeria graminis, 144 h, 125 ppm by mass spray, six days after inoculation

Cc1ccc(CN(C=O)NC(=O)c2cc(C)nnc2Oc2cccc(C3CC3)c2F)c(C)c1 [b-3, 3-(3-cyclopropyl-2-fluorophenoxy)-N′-(2,4-dimethylbenzyl)-N′-formyl-6-methylpyridazine-4-carbohydrazide]
≥ 75%: inhibition of growth at 25 ppm [1] | pest or weed control at 25 ppm [2] | pest or weed control at 125 ppm [2] | inhibition of growth at 25 ppm [3] | inhibition of growth at 25 ppm [4] | inhibition of growth at 25 ppm [5] | pest or weed control at 125 ppm [6]

Cc1ccc(CN(C=O)NC(=O)c2cc(C)ncc2Oc2cccc(C3CC3)c2F)c(C)c1 [b-14]
≥ 75%: inhibition of growth at 25 ppm [1] | pest or weed control at 25 ppm [2] | pest or weed control at 125 ppm [2] | inhibition of growth at 25 ppm [3] | inhibition of growth at 25 ppm [4] | inhibition of growth at 25 ppm [5] | pest or weed control at 125 ppm [6]

CCc1cc(C(=O)NN(Cc2ccc(C)cc2C)C(=O)OC)c(Oc2cccc(C3CC3)c2F)nn1 [b-27]
≥ 75%: inhibition of growth at 25 ppm [1] | pest or weed control at 25 ppm [2] | pest or weed control at 125 ppm [2] | inhibition of growth at 25 ppm [3] | inhibition of growth at 25 ppm [4] | inhibition of growth at 25 ppm [5]

COC(=O)N(Cc1ccc(C)cc1C)NC(=O)c1cc(C)ncc1Oc1cccc(C2CC2)c1 [b-32]
≥ 75%: inhibition of growth at 25 ppm [1] | pest or weed control at 25 ppm [2] | inhibition of growth at 25 ppm [3] | inhibition of growth at 25 ppm [4] | inhibition of growth at 25 ppm [5]

COC(=O)N(Cc1ccc(C)cc1C)NC(=O)c1cc(C)nnc1Oc1cccc(C#N)c1 [b-37]
≥ 75%: inhibition of growth at 25 ppm [1] | pest or weed control at 125 ppm [2] | inhibition of growth at 25 ppm [3] | inhibition of growth at 25 ppm [4] | inhibition of growth at 25 ppm [5] | pest or weed control at 125 ppm [6]

COC(=O)N(Cc1ccc(C)cc1C)NC(=O)c1cc(C2CC2)ncc1Oc1cccc(C2CC2)c1F [b-116]
≥ 75%: inhibition of growth at 25 ppm [1] | pest or weed control at 25 ppm [2] | inhibition of growth at 25 ppm [3] | inhibition of growth at 25 ppm [4] | inhibition of growth at 25 ppm [5]

COC(=O)N(Cc1ccc(C)cc1C)NC(=O)c1cc(C#N)ncc1Oc1cccc(C2CC2)c1F [b-119]
≥ 75%: inhibition of growth at 25 ppm [1] | pest or weed control at 25 ppm [2] | inhibition of growth at 25 ppm [3] | inhibition of growth at 25 ppm [4] | inhibition of growth at 25 ppm [5]

COC(=O)N(Cc1ccc(N(C)C)cc1C)NC(=O)c1cc(C)ncc1Oc1cccc(C2CC2)c1F [b-126]
≥ 75%: inhibition of growth at 25 ppm [1] | pest or weed control at 125 ppm [2] | inhibition of growth at 25 ppm [3] | inhibition of growth at 25 ppm [4] | inhibition of growth at 25 ppm [5]

COC(=O)N(Cc1ccc(C)cc1C)NC(=O)c1cc(C)nnc1Oc1cccc([N+](=O)[O-])c1 [b-135]
≥ 75%: inhibition of growth at 25 ppm [1] | pest or weed control at 25 ppm [2] | inhibition of growth at 25 ppm [3] | inhibition of growth at 25 ppm [4] | inhibition of growth at 25 ppm [5]

COC(=O)N(Cc1ccc(C)cc1C)NC(=O)c1ccncc1Oc1ccccc1 [b-188]
≥ 75%: inhibition of growth at 25 ppm [1] | pest or weed control at 25 ppm [2] | pest or weed control at 125 ppm [2] | inhibition of growth at 25 ppm [3] | inhibition of growth at 25 ppm [4] | inhibition of growth at 25 ppm [5] | pest or weed control at 125 ppm [6]

COC(=O)N(Cc1ccc(C)cc1C)NC(=O)c1c(F)cncc1Oc1cccc(Cl)c1F [b-200]
≥ 75%: inhibition of growth at 25 ppm [1] | pest or weed control at 25 ppm [2] | pest or weed control at 125 ppm [2] | inhibition of growth at 25 ppm [3] | inhibition of growth at 25 ppm [4] | inhibition of growth at 25 ppm [5] | pest or weed control at 125 ppm [6]

COC(=O)N(Cc1ccc(OC)cc1C)NC(=O)c1c(Cl)cncc1Oc1cccc(Cl)c1F [b-207]
≥ 75%: inhibition of growth at 25 ppm [1] | pest or weed control at 25 ppm [2] | pest or weed control at 125 ppm [2] | inhibition of growth at 25 ppm [3] | inhibition of growth at 25 ppm [4] | inhibition of growth at 25 ppm [5] | pest or weed control at 125 ppm [6]

COC(=O)N(Cc1ccc(C)cc1C)NC(=O)c1c(Oc2cccc(C3CC3)c2F)cnc2c1OC(C)(C)CC2 [b-209, Methyl 2-(7-(3-cyclopropyl-2-fluorophenoxy)-2,2-dimethyl-3,4-dihydro-2H-pyrano[3,2-b]pyridine-8-carbonyl)-1-(2,4-dimethylbenzyl)hydrazine-1-carboxylate]
≥ 75%: inhibition of growth at 25 ppm [1] | pest or weed control at 25 ppm [2] | pest or weed control at 125 ppm [2] | inhibition of growth at 25 ppm [3] | inhibition of growth at 25 ppm [4] | inhibition of growth at 25 ppm [5]

C=Cc1cncc(Oc2cccc(C3CC3)c2F)c1C(=O)NN(Cc1ccc(C)cc1C)C(=O)OC [b-211]
≥ 75%: inhibition of growth at 25 ppm [1] | pest or weed control at 25 ppm [2] | pest or weed control at 125 ppm [2] | inhibition of growth at 25 ppm [3] | inhibition of growth at 25 ppm [4] | inhibition of growth at 25 ppm [5] | pest or weed control at 125 ppm [6]

COC(=O)N(Cc1ccc(C)cc1C)NC(=O)c1c(Oc2cccc(C3CC3)c2F)cnc2c1OC(C)(C)C=C2 [b-213, Methyl 2-(7-(3-cyclopropyl-2-fluorophenoxy)-2,2-dimethyl-2H-pyrano[3,2-b]pyridine-8-carbonyl)-1-(2,4-dimethylbenzyl)hydrazine-1-carboxylate]
≥ 75%: inhibition of growth at 25 ppm [1] | pest or weed control at 25 ppm [2] | pest or weed control at 125 ppm [2] | inhibition of growth at 25 ppm [3] | inhibition of growth at 25 ppm [4] | inhibition of growth at 25 ppm [5] | pest or weed control at 125 ppm [6]

CO/N=C/c1cncc(Oc2cccc(C3CC3)c2F)c1C(=O)NN(Cc1ccc(C)cc1C)C(=O)OC [b-214]
≥ 75%: inhibition of growth at 25 ppm [1] | pest or weed control at 125 ppm [2] | inhibition of growth at 25 ppm [3] | inhibition of growth at 25 ppm [4] | inhibition of growth at 25 ppm [5]

C=C(OCC)c1cncc(Oc2cccc(C3CC3)c2F)c1C(=O)NN(Cc1ccc(C)cc1C)C(=O)OC [b-217]
≥ 75%: inhibition of growth at 25 ppm [1] | inhibition of growth at 25 ppm [3] | inhibition of growth at 25 ppm [4] | inhibition of growth at 25 ppm [5]
